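In this assay, cells in 96-well plates receive the compound at five concentrations for 48 hours. Endpoints are linearly interpolated between the surrounding concentrations. TGI is the concentration that stops growth completely.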
Tests used:
Assay in all cases: NCI anticancer screen, dose series, 48 h
[1] = test system: NCI/ADR-RES ovarian
[2] = test system: MDA-MB-435
[3] = test system: SNB-75 CNS
[4] = test system: HOP-92 NSCLC
[5] = test system: HS 578T breast
[6] = test system: T-47D breast
[7] = test system: MDA-MB-231 breast
[8] = test system: UO-31 renal
[9] = test system: A498 renal
[10] = test system: NCI-H522 lung
[11] = test system: MOLT-4 leukemia
[12] = test system: A549 NSCLC
[13] = test system: PC-3 prostate
[14] = test system: ACHN renal
[15] = test system: OVCAR-8 ovarian
[16] = test system: SK-MEL-5 melanoma
[17] = test system: 786-0 renal
[18] = test system: HOP-62 NSCLC
[19] = test system: SW-620 colon
[20] = test system: OVCAR-4 ovarian
[21] = test system: MDA-N
[22] = test system: SF-539 CNS
[23] = test system: HCT-116 colon
[24] = test system: MCF7 breast
[25] = test system: EKVX NSCLC
[26] = test system: RPMI-8226 leukemia
[27] = test system: DU-145 prostate
[28] = test system: HCC-2998 colon
[29] = test system: SR leukemia
[30] = test system: MALME-3M melanoma
[31] = test system: BT-549 breast
[32] = test system: TK-10 renal
[33] = test system: SNB-19 CNS
[34] = test system: SF-295 CNS
[35] = test system: HT29 colon
[36] = test system: CAKI-1 renal
[37] = test system: SK-OV-3 ovarian
[38] = test system: SK-MEL-28 melanoma
[39] = test system: HL-60(TB) leukemia
[40] = test system: CCRF-CEM leukemia
[41] = test system: NCI-H23 lung
[42] = test system: NCI-H226 lung
[43] = test system: LOX IMVI melanoma
[44] = test system: SF-268 CNS
[45] = test system: M14 melanoma
[46] = test system: IGROV1 ovarian
[47] = test system: K-562 leukemia
[48] = test system: OVCAR-3 ovarian
[49] = test system: COLO 205 colon
[50] = test system: RXF 393 renal
[51] = test system: UACC-62 melanoma
[52] = test system: HCT-15 colon
[53] = test system: U251 CNS
[54] = test system: SN12C renal
[55] = test system: NCI-H460 lung
[56] = test system: KM12 colon
[57] = test system: OVCAR-5 ovarian
[58] = test system: UACC-257 melanoma
[59] = test system: SK-MEL-2 melanoma

COC(=O)/C(=C\c1cn(C(C)=O)c2ccccc12)P(=O)(OC)OC was tested. Which TGI [1] did it give?
Its TGI is greater than 100 µM.

And the TGI [2]?
Its TGI is 64.7 µM.

And the TGI [3]?
Its TGI is 26.4 µM.

And the TGI [4]?
The TGI was 33.8 µM.

What about the TGI [5] of the same compound?
Its TGI is greater than 100 µM.

And the TGI [6]?
The TGI was 33.1 µM.

What about the TGI [7] of the same compound?
The TGI was 24.1 µM.

And the TGI [8]?
The TGI was 26.1 µM.

And the TGI [9]?
Its TGI is 31.4 µM.

And the TGI [10]?
The TGI was 23.2 µM.

And the TGI [11]?
The TGI was greater than 100 µM.

What about the TGI [12] of the same compound?
Its TGI is 35.8 µM.

What about the TGI [13] of the same compound?
The TGI was 39.8 µM.

And the TGI [14]?
Its TGI is 25.4 µM.

And the TGI [15]?
The TGI was 68.9 µM.

And the TGI [16]?
Its TGI is 26.5 µM.

What about the TGI [17] of the same compound?
Its TGI is 46.3 µM.

What about the TGI [18] of the same compound?
Its TGI is 28.8 µM.

What about the TGI [19] of the same compound?
The TGI was 40.7 µM.

And the TGI [20]?
Its TGI is 30.2 µM.

And the TGI [21]?
The TGI was 32.4 µM.

And the TGI [22]?
Its TGI is 38.7 µM.

What about the TGI [23] of the same compound?
Its TGI is 28 µM.

And the TGI [24]?
Its TGI is 26.4 µM.

What about the TGI [25] of the same compound?
The TGI was 38 µM.

What about the TGI [26] of the same compound?
The TGI was 93.9 µM.

What about the TGI [27] of the same compound?
The TGI was 26.2 µM.

And the TGI [28]?
The TGI was 30.4 µM.

What about the TGI [29] of the same compound?
The TGI was greater than 100 µM.

What about the TGI [30] of the same compound?
Its TGI is 52 µM.

And the TGI [31]?
The TGI was 29.6 µM.

What about the TGI [32] of the same compound?
Its TGI is 36 µM.

And the TGI [33]?
Its TGI is 32 µM.

What about the TGI [34] of the same compound?
The TGI was 28.5 µM.

And the TGI [35]?
Its TGI is 29.7 µM.

What about the TGI [36] of the same compound?
Its TGI is 27 µM.

And the TGI [37]?
Its TGI is 39.2 µM.

And the TGI [38]?
The TGI was 55.1 µM.

And the TGI [39]?
Its TGI is greater than 100 µM.

What about the TGI [40] of the same compound?
Its TGI is greater than 100 µM.

What about the TGI [41] of the same compound?
The TGI was 30.2 µM.

What about the TGI [42] of the same compound?
Its TGI is greater than 100 µM.

And the TGI [43]?
The TGI was 20.3 µM.

And the TGI [44]?
Its TGI is 54 µM.

What about the TGI [45] of the same compound?
Its TGI is 28.5 µM.

And the TGI [46]?
Its TGI is 44.9 µM.

What about the TGI [47] of the same compound?
Its TGI is greater than 100 µM.

What about the TGI [48] of the same compound?
Its TGI is 32.4 µM.

What about the TGI [49] of the same compound?
Its TGI is 33.3 µM.

And the TGI [50]?
The TGI was 32.8 µM.

And the TGI [51]?
The TGI was 31.1 µM.

What about the TGI [52] of the same compound?
The TGI was 28.1 µM.

And the TGI [53]?
The TGI was 29.5 µM.

What about the TGI [54] of the same compound?
Its TGI is 28 µM.

And the TGI [55]?
Its TGI is 31.1 µM.

Which results are given for COC(=O)CCC(C)C1CCC2C3CCC4CC5CCC4(C)C3(O5)C(Br)C(Br)C12C (stereo not drawn)?
TGI [1]: > 100 µM; TGI [2]: > 100 µM; TGI [56]: > 100 µM; TGI [3]: > 100 µM; TGI [4]: > 100 µM; TGI [5]: > 100 µM; TGI [6]: > 100 µM; TGI [7]: > 100 µM; TGI [8]: > 100 µM; TGI [9]: > 100 µM; TGI [10]: > 100 µM; TGI [11]: > 100 µM; TGI [12]: > 100 µM; TGI [13]: > 100 µM; TGI [14]: > 100 µM; TGI [15]: > 100 µM; TGI [16]: > 100 µM; TGI [17]: > 100 µM; TGI [18]: > 100 µM; TGI [57]: > 100 µM; TGI [19]: > 100 µM; TGI [20]: > 100 µM; TGI [58]: > 100 µM; TGI [59]: > 100 µM; TGI [21]: > 100 µM; TGI [22]: > 100 µM; TGI [23]: > 100 µM; TGI [24]: > 100 µM; TGI [25]: > 100 µM; TGI [26]: > 100 µM; TGI [27]: > 100 µM; TGI [28]: > 100 µM; TGI [29]: > 100 µM; TGI [30]: > 100 µM; TGI [31]: > 100 µM; TGI [32]: > 100 µM; TGI [33]: > 100 µM; TGI [34]: > 100 µM; TGI [35]: > 100 µM; TGI [36]: > 100 µM; TGI [37]: > 100 µM; TGI [38]: > 100 µM; TGI [39]: > 100 µM; TGI [41]: > 100 µM; TGI [42]: > 100 µM; TGI [43]: > 100 µM; TGI [44]: > 100 µM; TGI [45]: > 100 µM; TGI [46]: > 100 µM; TGI [47]: > 100 µM; TGI [48]: > 100 µM; TGI [49]: > 100 µM; TGI [50]: > 100 µM; TGI [51]: > 100 µM; TGI [52]: > 100 µM; TGI [53]: > 100 µM; TGI [54]: > 100 µM; TGI [55]: > 100 µM

— PubChem BioAssay (NCI)
